Read-outs that look alike come from different tables or passages of the source.
What was measured:
MSTO-211H cells = assay: Tumor cell proliferation inhibition experiment (Cell Titer Glo), MSTO-211H; format: cell-based; conditions: MSTO-211H lung cancer cells, three days incubation
Procedure: (§1) Cell Titer Glo luminescent cell viability assay kit was used to quantify the ATP content in cells, so as to quantify the number of viable cells. […] On the second day, the compound was added to the 96-well plate after a three-fold serial dilution to eight concentrations, and incubated at 37° C. for three days in the 5% carbon dioxide incubator. The culture medium was treated with the addition of Cell Titer Glo luminescent cell viability assay kit (Promega G7570) reagent, incubated for 10 minutes, and then placed in Envision (Pelkin Elmer) to read the luminescence signal. DMSO was used instead of the compound as a control to calculate the inhibition rate (inhibition rate %=(1−compound signal/DMSO signal)*100), and then standard four parameter curve fitting was used to calculate the inhibitory activity IC50.

NCI-H2052 cells = assay: Tumor cell proliferation inhibition experiment (Cell Titer Glo), NCI-H2052; format: cell-based; conditions: NCI-H2052 lung cancer cells, three days incubation
Procedure: as §1

[1] = Pharmacokinetic evaluation experiment in mice (IV and PO); format: in vivo; conditions: mouse, plasma, male ICR mice; for AUC: read-out: AUC
Procedure: 120 healthy adult male ICR mice were selected and divided into 20 groups according to the principle of similar body weight, with 6 mice in each group of IV (10 groups) and 6 mice in each group of PO (10 groups). An appropriate amount of sample was weighed, sequentially added with an appropriate amount of DMA, Solutol, and Saline according to the volume ratio of 10:10:80, and stirred and sonicated to achieve a clarification of 1 mg/mL. After overnight fasting, mice in the IV group were intravenously administered with a volume of 5 mL/kg and a dose of 5 mg/kg, respectively; and mice in the PO group were intragastrically administered with a volume of 30 mL/kg and a dose of 30 mg/kg, respectively. Interleaved sampling was performed on every 6 mice after administration of the test compound. In the IV group, approximately 30 μL of blood was collected at 0.0833, 0.25, 0.5, 1, 2, 4, 6, 8, and 24 hours, and placed in a commercial anticoagulant tube pre-filled with EDTA-K2. In the PO group, approximately 30 μL of blood was collected at 0.25, 0.5, 1, 2, 4, 6, 8, and 24 hours, and placed in the commercial anticoagulant tube pre-filled with EDTA-K2. The tubes were centrifuged for 15 minutes to separate the plasma, and the plasma was stored at −80° C. Animals were allowed to eat 2 hours after administration. The content of the test compound in the plasma of mice after intravenous and intragastric administration was determined by LC/MS/MS method. The linear range of the method was 1.00 to 1000 ng/mL: plasma samples were analyzed after protein precipitation.

Compound	IC50 (MSTO-211H cells; Homo sapiens, 72 h) [nM]	IC50 (NCI-H2052 cells; Homo sapiens, 72 h) [nM]	further results
C[C@]1(O)CC[C@H](NC[C@@]2(c3ccccc3)Cc3c(cc(F)c(Cl)c3-c3c(C(N)=O)cc4c(c3F)C3CC3O4)O2)CC1 (stereo partly drawn) [Compound 23a]	110	200	–
NC(=O)c1cc2c(c(F)c1-c1c(Cl)c(F)cc3c1C[C@](c1ccccc1)([C@@H]1CCCN1)O3)CCC2 [Compound 52a]	170	200	–
C#Cc1c(OCCO)ncc(C(=O)NC)c1-c1c(Cl)c(F)cc2c1C[C@](c1ccccc1)([C@@H]1CCCN1)O2 [Compound 9a]	> 10000	7970	–
CNC(=O)c1cc2c(c(F)c1-c1c(Cl)c(F)cc3c1C[C@@](CN[C@H]1CC[C@](C)(O)CC1)(c1ccccc1)O3)CCC2O (stereo partly drawn) [Compound 42a]	730	900	–
CNC(=O)c1cnc(OCCO)c(F)c1-c1c(Cl)c(F)cc2c1C[C@](c1ccccc1)([C@@H]1CC3(CC3)CN1)O2 [Compound 10a]	236	328	bioavailability ([1]; PO 30 mg/kg vs IV 5 mg/kg): 17.3%; clearance ([1]; IV 5 mg/kg): 50.4 mL/min/kg; half-life ([1]; IV 5 mg/kg): 66.6 min; AUC ([1]; IV 5 mg/kg): 1650 ng·h/mL; Vd ([1]; IV 5 mg/kg, read-out: Vss): 2.42 L/kg; AUC ([1]; PO 30 mg/kg): 1710 ng·h/mL; Cmax ([1]; PO 30 mg/kg, read-out: Cmax): 603 ng/mL; Tmax ([1]; PO 30 mg/kg, read-out: Tmax): 30 min
CNC(=O)c1cc2c(c(F)c1-c1c(Cl)c(F)cc3c1C[C@](c1ccccc1)([C@@H]1CCCN1)O3)CCC2=O [Compound 40a]	490	600	–
CNC(=O)c1cc2c(c(F)c1-c1c(Cl)c(F)cc3c1C[C@](c1ccccc1)([C@@H]1CCCN1)O3)N1C[C@@H](F)CC1CO2 (stereo partly drawn) [Compound 5a]	1940	3140	–
C[C@]1(O)CC[C@H](NC[C@@]2(c3ccccc3)Cc3c(cc(F)c(Cl)c3-c3c(C(N)=O)cc4c(c3F)OC3CC43)O2)CC1 (stereo partly drawn) [Compound 24a]	20	40	–
CNC(=O)c1cnc(OCCO)c(F)c1-c1c(C#N)c(F)cc2c1C[C@](c1ccccc1)([C@@H]1CCCN1)O2 [Compound 12a]	> 10000	> 10000	–
CNC(=O)c1cnc(OCCO)c(OC)c1-c1c(Cl)c(F)cc2c1C[C@](c1ccccc1)([C@@H]1CCCN1)O2 [Compound 7a]	9800	9080	–
CNC(=O)c1cc2c(c(F)c1-c1c(Cl)c(F)cc3c1C[C@](c1ccccc1)([C@@H]1CCCN1)O3)C[C@H](O)[C@H]2C [Compound 57a1]	–	–	IC50 (MSTO-211H cells): 390 nM; IC50 (NCI-H2052 cells): 450 nM
CNC(=O)c1cnc(OCCO)c(F)c1-c1c(Cl)c(F)cc2c1C[C@](c1ccccc1)(c1ccn[nH]1)O2 [Compound 11a]	> 10000	> 10000	–
CNC(=O)c1cc2c(c(F)c1-c1c(Cl)c(F)cc3c1C[C@](c1ccccc1)([C@@H]1CCCN1)O3)N1CCCC1CO2 (stereo partly drawn) [Compound 3a]	976	1870	–
CNC(=O)c1cnc(OCCO)c(N)c1-c1c(Cl)c(F)cc2c1C[C@](c1ccccc1)([C@@H]1CCCN1)O2 [Compound 8a]	> 10000	> 10000	–
CNC(=O)c1cc2c(c(F)c1-c1c(Cl)c(F)cc3c1C[C@](c1ccccc1)([C@@H]1CCC(=O)N1)O3)C1CC1O2 (stereo partly drawn) [Compound 20a]	> 10000	> 10000	–
CNC(=O)c1cc2c(c(F)c1-c1c(Cl)c(F)cc3c1C[C@](c1ccccc1)([C@@H]1CCCN1)O3)CC(=O)C2 [Compound 65a]	> 10000	> 10000	–
CNC(=O)c1cc2c(c(F)c1-c1c(Cl)c(F)cc3c1C[C@@](CN[C@H]1CC[C@](C)(O)CC1)(c1ccccc1)O3)OC1CC21 (stereo partly drawn) [Compound 22a]	50	90	–
CNC(=O)c1cc2c(c(F)c1-c1c(Cl)c(F)cc3c1C[C@](c1ccccc1)([C@@H]1CCCN1)O3)N1C[C@H](O)CC1CO2 (stereo partly drawn) [Compound 4a]	> 10000	8370	–

Compound	IC50 (MSTO-211H cells; Homo sapiens, 72 h) [nM]	IC50 (NCI-H2052 cells; Homo sapiens, 72 h) [nM]	further results
CNC(=O)c1cnc(OCCO)c(F)c1-c1c(Cl)c(F)cc2c1C[C@](c1ccccc1)([C@@H]1CCC(=O)N1)O2 [Compound 19a]	> 10000	> 10000	–
CNC(=O)c1cc2c(c(F)c1-c1c(Cl)c(F)cc3c1C[C@](c1ccccc1)([C@@H]1CC4(CC4)CN1)O3)N1CCCC1CO2 (stereo partly drawn) [Compound 15a]	2880	2730	–
C[C@H]1c2c(cc(F)c(Cl)c2-c2c(C(N)=O)cc3c(c2F)OC2CC32)O[C@]1(CN[C@H]1CC[C@](C)(O)CC1)c1ccccc1 (stereo partly drawn) [Compound 28a]	40	50	–
CNC(=O)c1cc2c(c(F)c1-c1c(Cl)c(F)cc3c1C[C@](c1ccccc1)([C@@H]1CCCN1)O3)CC(O)C2 (stereo partly drawn) [Compound 49a]	150	240	–
CNC(=O)c1cc2c(c(F)c1-c1c(Cl)c(F)cc3c1C[C@@](CN[C@H]1CC[C@](C)(O)CC1)(c1ccccc1)O3)[C@@H]1C[C@@H]1O2 (single isomer, unassigned) [Compound 14a2]	390	590	–
CNC(=O)c1cc2c(c(F)c1-c1c(Cl)c(F)cc3c1[C@H](C)[C@@](CN[C@H]1CC[C@](C)(O)CC1)(c1ccccc1)O3)C1CC1O2 (stereo partly drawn) [Compound 25a]	150	260	–
CNC(=O)c1cc2c(c(F)c1-c1c(Cl)c(F)cc3c1C[C@](c1ccccc1)([C@@H]1CCCN1)O3)CCC2S(C)(=O)=O (stereo partly drawn) [Compound 46a]	640	930	–
CNC(=O)c1cc2c(c(F)c1-c1c(Cl)c(F)cc3c1C[C@](c1ccccc1)([C@@H]1CCCN1)O3)CCC2(F)F [Compound 36a]	450	650	–
CNC(=O)c1cc2c(c(F)c1-c1c(Cl)c(F)cc3c1C[C@@](CN[C@H]1CC[C@](C)(O)CC1)(c1ccccc1)O3)CCC2 [Compound 30a]	300	550	–
CNC(=O)c1cc2c(c(F)c1-c1c(Cl)c(F)cc3c1C[C@](c1ccccc1)([C@@H]1CCCN1)O3)CCC2F (stereo partly drawn) [Compound 43a]	440	500	–
CNC(=O)c1cc2c(c(F)c1-c1c(Cl)c(F)cc3c1C[C@@](CN[C@H]1CC[C@](C)(O)CC1)(c1ccccc1)O3)CC(O)C2 (stereo partly drawn) [Compound 80a]	490	580	–
CNC(=O)c1cc2c(c(F)c1-c1c(Cl)c(F)cc3c1[C@H](C)[C@@](CN[C@H]1CC[C@](C)(O)CC1)(c1ccccc1)O3)OC1CC21 (stereo partly drawn) [Compound 26a]	30	40	–
CNC(=O)c1cc2c(c(F)c1-c1c(Cl)c(F)cc3c1C[C@](c1ccccc1)([C@@H]1CCCN1)O3)CCC2C#N (stereo partly drawn) [Compound 38a]	990	750	–
CNC(=O)c1cnc(OCCO)c(O)c1-c1c(Cl)c(F)cc2c1C[C@](c1ccccc1)([C@@H]1CCCN1)O2 [Compound 6a]	> 10000	> 10000	–
C[C@H]1c2c(cc(F)c(Cl)c2-c2c(C(N)=O)cc3c(c2F)C2CC2O3)O[C@]1(CN[C@H]1CC[C@](C)(O)CC1)c1ccccc1 (stereo partly drawn) [Compound 27a]	100	210	–
CNC(=O)c1cc2c(c(F)c1-c1c(Cl)c(F)cc3c1C[C@@](CN[C@H]1CC[C@](C)(O)CC1)(c1ccccc1)O3)[C@H]1C[C@H]1O2 [Compound 14a1]	220	290	–
CNC(=O)c1cc2c(c(F)c1-c1c(Cl)c(F)cc3c1C[C@](c1ccccc1)([C@@H]1CCCN1)O3)CC1(CC1)C2 [Compound 1a]	2190	4750	–

— patent publication US20240368134A1, “AROMATIC COMPOUND, PHARMACEUTICAL COMPOSITION, AND APPLICATION THEREOF” (SHANGHAI KYGENT PHARMACEUTICAL CO., LTD, priority 2021, published 2024)
